Results from the supplement of paper PMC4862054.

Columns and labels:
Experiment in all cases: normalised viability (% of control), CellTiter-Blue; higher = more viable cells (about 100 = DMSO control)
Conditions in all cases: incubation time: 72 h
CAL-85-1 [1] = system: CAL-85-1
Method: (§1)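 DSRT, CellTiter-Blue viability, 72 h incubation. Signal is normalised to DMSO and benzethonium chloride controls. Value is the normalised response at dose 7.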

HDQ-P1 [2] = system: HDQ-P1
Method: as §1

MDA-MB-453 [3] = system: MDA-MB-453
Method: as §1

DU-4475 [4] = system: DU-4475
Method: as §1

CAL-148 [5] = system: CAL-148
Method: as §1

CAL-51 [6] = system: CAL-51
Method: as §1

CAL-85-1 [7] = system: CAL-85-1; remark: listed apart in the source
Method: (§2)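 DSRT, CellTiter-Blue viability, 72 h incubation. Signal is normalised to DMSO and benzethonium chloride controls. Value is the normalised response at dose 9.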

HDQ-P1 [8] = system: HDQ-P1; remark: listed apart in the source
Method: as §2

MDA-MB-453 [9] = system: MDA-MB-453; remark: listed apart in the source
Method: as §2

DU-4475 [10] = system: DU-4475; remark: listed apart in the source
Method: as §2

CAL-148 [11] = system: CAL-148; remark: listed apart in the source
Method: as §2

CAL-51 [12] = system: CAL-51; remark: listed apart in the source
Method: as §2

CAL-85-1 [13] = system: CAL-85-1; remark: listed apart in the source
Method: (§3)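 DSRT, CellTiter-Blue viability, 72 h incubation. Signal is normalised to DMSO and benzethonium chloride controls. Value is the normalised response at dose 6.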

HDQ-P1 [14] = system: HDQ-P1; remark: listed apart in the source
Method: as §3

MDA-MB-453 [15] = system: MDA-MB-453; remark: listed apart in the source
Method: as §3

DU-4475 [16] = system: DU-4475; remark: listed apart in the source
Method: as §3

CAL-148 [17] = system: CAL-148; remark: listed apart in the source
Method: as §3

CAL-51 [18] = system: CAL-51; remark: listed apart in the source
Method: as §3

## CC[C@@]1(O)C(=O)OCc2c1cc1n(c2=O)Cc2cc3ccccc3nc2-1 [Camptothecin] (500 nM)
CAL-85-1 [1]
  normalised viability: 40%
HDQ-P1 [2]
  normalised viability: 50.3%
MDA-MB-453 [3]
  normalised viability: 23.7%
DU-4475 [4]
  normalised viability: 10.7%
CAL-148 [5]
  normalised viability: 8%
CAL-51 [6]
  normalised viability: 5.8%

## CC[C@@]1(O)C(=O)OCc2c1cc1n(c2=O)Cc2cc3ccccc3nc2-1 [Camptothecin] (5000 nM)
CAL-85-1 [7]
  normalised viability: 13.9%
HDQ-P1 [8]
  normalised viability: 24.2%
MDA-MB-453 [9]
  normalised viability: 5.48%
DU-4475 [10]
  normalised viability: -0.07%
CAL-148 [11]
  normalised viability: 0.33%
CAL-51 [12]
  normalised viability: 1.8%

## O=c1[nH]cc(F)c(=O)[nH]1 [Fluorouracil] (300 nM)
CAL-85-1 [13]
  normalised viability: 87.2%
HDQ-P1 [14]
  normalised viability: 87.2%
MDA-MB-453 [15]
  normalised viability: 85.7%
DU-4475 [16]
  normalised viability: 102%
CAL-148 [17]
  normalised viability: 96.7%
CAL-51 [18]
  normalised viability: 101%

## C[C@@H]1C=C2C(=O)O[C@@H]3CC[C@H](C1)[C@]23O [Galiellalactone] (1500 nM)
CAL-85-1 [13]
  normalised viability: 100%
HDQ-P1 [14]
  normalised viability: 65.4%
MDA-MB-453 [15]
  normalised viability: 103%
DU-4475 [16]
  normalised viability: 98.1%
CAL-148 [17]
  normalised viability: 138%
CAL-51 [18]
  normalised viability: 106%

## COC1=C2C[C@@H](C)C[C@H](OC)[C@H](O)[C@@H](C)/C=C(\C)[C@H](OC(N)=O)[C@@H](OC)/C=C\C=C(/C)C(=O)NC(=CC1=O)C2=O [Geldanamycin] (300 nM)
CAL-85-1 [13]
  normalised viability: 47.7%
HDQ-P1 [14]
  normalised viability: 46.5%
MDA-MB-453 [15]
  normalised viability: 6.01%
DU-4475 [16]
  normalised viability: 0.05%
CAL-148 [17]
  normalised viability: 28.9%
CAL-51 [18]
  normalised viability: 74.5%

## O=P(O)(NCCCl)NCCCl [Ifosfamide mustard] (300 nM)
CAL-85-1 [13]
  normalised viability: 98%
HDQ-P1 [14]
  normalised viability: 54%
MDA-MB-453 [15]
  normalised viability: 114%
DU-4475 [16]
  normalised viability: 92.7%
CAL-148 [17]
  normalised viability: 110%
CAL-51 [18]
  normalised viability: 100%

## O=P(O)(NCCCl)NCCCl [Ifosfamide mustard] (1000 nM)
CAL-85-1 [1]
  normalised viability: 89.4%
HDQ-P1 [2]
  normalised viability: 119%
MDA-MB-453 [3]
  normalised viability: 104%
DU-4475 [4]
  normalised viability: 112%
CAL-148 [5]
  normalised viability: 111%
CAL-51 [6]
  normalised viability: 107%

## O=P(O)(NCCCl)NCCCl [Ifosfamide mustard] (10000 nM)
CAL-85-1 [7]
  normalised viability: 87.1%
HDQ-P1 [8]
  normalised viability: 105%
MDA-MB-453 [9]
  normalised viability: 99.8%
DU-4475 [10]
  normalised viability: 96.1%
CAL-148 [11]
  normalised viability: 105%
CAL-51 [12]
  normalised viability: 94.3%

## Cn1cnc2c(F)c(Nc3ccc(Br)cc3F)c(C(=O)NOCCO)cc21 [MEK-162] (30 nM)
CAL-85-1 [13]
  normalised viability: 101%
HDQ-P1 [14]
  normalised viability: 47.6%
MDA-MB-453 [15]
  normalised viability: 118%
DU-4475 [16]
  normalised viability: 61.2%
CAL-148 [17]
  normalised viability: 95.1%
CAL-51 [18]
  normalised viability: 96.5%

## CCOc1cc2ncc(C#N)c(Nc3ccc(OCc4ccccn4)c(Cl)c3)c2cc1NC(=O)/C=C/CN(C)C [Neratinib] (30 nM)
CAL-85-1 [13]
  normalised viability: 107%
HDQ-P1 [14]
  normalised viability: 94.3%
MDA-MB-453 [15]
  normalised viability: 81.2%
DU-4475 [16]
  normalised viability: 100%
CAL-148 [17]
  normalised viability: 85.9%
CAL-51 [18]
  normalised viability: 96%

## COc1ccc(C2=N[C@@H](c3ccc(Cl)cc3)[C@@H](c3ccc(Cl)cc3)N2C(=O)N2CCNC(=O)C2)c(OC(C)C)c1 [Nutlin-3] (300 nM)
CAL-85-1 [13]
  normalised viability: 89.9%
HDQ-P1 [14]
  normalised viability: 66.2%
MDA-MB-453 [15]
  normalised viability: 91.2%
DU-4475 [16]
  normalised viability: 84.8%
CAL-148 [17]
  normalised viability: 96.3%
CAL-51 [18]
  normalised viability: 99%

## COC1=CC(c2cc3ccccc3[nH]2)=N/C1=C\c1[nH]c(C)cc1C [Obatoclax] (300 nM)
CAL-85-1 [13]
  normalised viability: 66.2%
HDQ-P1 [14]
  normalised viability: 40.7%
MDA-MB-453 [15]
  normalised viability: 72.2%
DU-4475 [16]
  normalised viability: 75%
CAL-148 [17]
  normalised viability: 91.1%
CAL-51 [18]
  normalised viability: 95.7%

## COC(=O)C[C@](O)(CCCC(C)(C)O)C(=O)O[C@@H]1C(OC)=C[C@]23CCCN2CCc2cc4c(cc2[C@H]13)OCO4 [Omacetaxine mepesuccinate] (300 nM)
CAL-85-1 [13]
  normalised viability: 4.19%
HDQ-P1 [14]
  normalised viability: 10.2%
MDA-MB-453 [15]
  normalised viability: 20.1%
DU-4475 [16]
  normalised viability: 9.29%
CAL-148 [17]
  normalised viability: 13.5%
CAL-51 [18]
  normalised viability: 7.35%

## COC(=O)C[C@](O)(CCCC(C)(C)O)C(=O)O[C@@H]1C(OC)=C[C@]23CCCN2CCc2cc4c(cc2[C@H]13)OCO4 [Omacetaxine mepesuccinate] (1000 nM)
CAL-85-1 [1]
  normalised viability: 3.04%
HDQ-P1 [2]
  normalised viability: 13.1%
MDA-MB-453 [3]
  normalised viability: 15.1%
DU-4475 [4]
  normalised viability: 9.53%
CAL-148 [5]
  normalised viability: 12.4%
CAL-51 [6]
  normalised viability: 4.98%
